In ChEMBL document CHEMBL6092137, “Synergistic immune augmentation enabled by covalently conjugating TLR4 and NOD2 agonists” (Eur J Med Chem, 2024):
Active and inactive are the calls of the source. The calls are words filed in the database; no cut-off is given here.

What was measured:
Mus musculus [1] = species on record: Mus musculus; test: Activation of adaptive immune response in ovalbumin immunized mouse model assessed as increase in IgG2a titers incubated for 1 hrs and measured on day 42; assay type: functional, organism-based
[2] = Toxicity in immunized BALB/c mouse assessed as inflammatory cell infiltration in spleen measured on day 42 by H and E staining based analysis; details: 1008 h, time 42 day
[3] = Induction of mouse BMDC cell maturation assessed as change in CD86 positive cells incubated for 18 hrs by staining based flow cytometric analysis relative to control; assay type: functional
[4] = Induction of mouse BMDC cell maturation assessed as fold increase in CD80 and CD86 positive cells incubated for 18 hrs by staining based flow cytometric analysis relative to combination of RC529 and Muramyl dipeptide; assay type: functional
[5] = Immunostimulatory activity in C57BL/6 mouse BMDC cells assessed as TLR4 inhibitor mediated reduction in IL-6 level at 9.3 uM incubated for 20 hrs in presence of GSK717 by ELISA; assay type: functional; parameters: scale not given: the % may be the effect or the level left
[6] = Immunostimulatory activity in mouse spleen T-lymphocytes assessed as fold increase in proportion of TNF-alpha positive secreting CD4+ cells and measured on day 42 by staining based flow cytometric analysis relative to RC529 and muramyl dipeptide combination; assay type: functional, T-cell
[7] = Toxicity in immunized BALB/c mouse assessed as inflammatory cell infiltration in kidneys measured on day 42 by H and E staining based analysis; details: 1008 h, time 42 day
[8] = Induction of mouse RAW264.7 cell maturation assessed as fold increase in CD80 positive cells incubated for 18 hrs by staining based flow cytometric analysis relative to combination of RC529 and Muramyl dipeptide; assay type: functional
Mus musculus [9] = species on record: Mus musculus; test: Activation of adaptive immune response in ovalbumin immunized mouse model assessed as increase in IgG titers incubated for 1 hrs and measured on 28 to 42 days; assay type: functional, organism-based
[10] = Induction of mouse RAW264.7 cell maturation assessed as fold increase in CD86 positive cells incubated for 18 hrs by staining based flow cytometric analysis relative to combination of RC529 and Muramyl dipeptide; assay type: functional
[11] = Immunostimulatory activity in C57BL/6 mouse BMDC cells assessed as TLR4 inhibitor mediated reduction in IL-6 level at 9.3 uM incubated for 20 hrs in presence of TAK242 by ELISA; assay type: functional; parameters: scale not given: the % may be the effect or the level left
Mus musculus [12] = test: Induction of innate immunity in BALB/c mouse assessed as fold increase in IL-6 level in serum at 22.53 ug, ip measured after 2 hrs by ELISA; assay type: functional; details: dose 22.53 µg
THP-1 = test: Cytotoxicity against human THP-1 cells assessed as reduction in cell viability by MTT assay; assay type: toxicity, cell-based
T-cell [13] = test: Immunostimulatory activity in mouse spleen T-lymphocytes assessed as fold increase in proportion of TNF-alpha and IFN-gamma double-positive secreting CD4+ cells and measured on day 42 by staining based flow cytometric analysis relative to muramyl dipeptide; assay type: functional; details: time 42 day
[14] = Immunostimulatory activity in female BALB/c mouse spleen T-lymphocytes assessed as fold increase in proportion of Tcm in CD4+ cells and measured on day 42 by staining based flow cytometric analysis relative to combination of RC529 and Muramyl dipeptide; assay type: functional, T-cell; details: time 42 day
[15] = Toxicity in immunized BALB/c mouse assessed as inflammatory cell infiltration in heart measured on day 42 by H and E staining based analysis; assay type: tissue-based; details: 1008 h, time 42 day
[16] = Toxicity in immunized BALB/c mouse assessed as change in AST level measured on day 42 […]; details: in vivo, 1008 h, time 42 day
[17] = Toxicity in immunized BALB/c mouse assessed as vascular congestion in kidneys measured on day 42 by H and E staining based analysis; details: in vivo, 1008 h, time 42 day
[18] = Toxicity in immunized BALB/c mouse assessed as vascular congestion in liver measured on day 42 by H and E staining based analysis; details: in vivo, 1008 h, time 42 day
T-cell [19] = test: Immunostimulatory activity in mouse spleen T-lymphocytes assessed as fold increase in proportion of IFN-gamma positive secreting CD4+ cells and measured on day 42 by staining based flow cytometric analysis relative to RC529 and muramyl dipeptide combination; assay type: functional; details: time 42 day
Mus musculus [20] = species on record: Mus musculus; test: Activation of adaptive immune response in ovalbumin immunized mouse model assessed as increase in IgG2b titers incubated for 1 hrs and measured on day 42; assay type: functional, organism-based
T-cell [21] = test: Immunostimulatory activity in mouse spleen T-lymphocytes assessed as fold increase in proportion of TNF-alpha and IFN-gamma double-positive secreting CD8+ cells and measured on day 42 by staining based flow cytometric analysis relative to combination of RC529 and muramyl dipeptide; assay type: functional; details: time 42 day
Mus musculus [22] = species on record: Mus musculus; test: Activation of adaptive immune response in ovalbumin immunized mouse model assessed as fold increase in IgG titers incubated for 1 hrs and measured on day 42 relative to combination of RC529 and Muramyl dipeptide; assay type: functional
[23] = Toxicity in immunized BALB/c mouse assessed as change in ALT level measured on day 42 […]; details: in vivo, 1008 h, time 42 day
[24] = Induction of mouse RAW264.7 cell maturation assessed as change in CD80 positive cells incubated for 18 hrs by staining based flow cytometric analysis relative to control; assay type: functional
Mus musculus [25] = species on record: Mus musculus; test: Activation of adaptive immune response in ovalbumin immunized mouse model assessed as increase in IgG1 titers incubated for 1 hrs and measured on day 42; assay type: functional, organism-based
[26] = Immunostimulatory activity in female BALB/c mouse spleen T-lymphocytes assessed as fold increase in proportion of Tcm in CD8+ cells and measured on day 42 by staining based flow cytometric analysis relative to combination of RC529 and Muramyl dipeptide; assay type: functional, T-cell; details: time 42 day
[27] = Immunostimulatory activity in C57BL/6 mouse BMDC cells assessed as TLR4/NOD2 inhibitor mediated reduction in IL-6 level at 9.3 uM incubated for 20 hrs in presence of TAK242/ GSK717 by ELISA; assay type: functional; parameters: scale not given: the % may be the effect or the level left
[28] = Toxicity in immunized BALB/c mouse assessed as vascular congestion in brain measured on day 42 by H and E staining based analysis; assay type: tissue-based; details: in vivo, 1008 h, time 42 day
[29] = Toxicity in immunized BALB/c mouse assessed as inflammatory cell infiltration in liver measured on day 42 by H and E staining based analysis; details: 1008 h, time 42 day
[30] = Induction of mouse BMDC cell maturation assessed as fold increase in CD80 positive cells incubated for 18 hrs by staining based flow cytometric analysis relative to combination of RC529 and Muramyl dipeptide; assay type: functional
[31] = Toxicity in immunized BALB/c mouse assessed as vascular congestion in spleen measured on day 42 by H and E staining based analysis; details: in vivo, 1008 h, time 42 day
[32] = Induction of mouse BMDC cell maturation assessed as change in CD80 positive cells incubated for 18 hrs by staining based flow cytometric analysis relative to control; assay type: functional
[33] = Induction of mouse RAW264.7 cell maturation assessed as change in CD86 positive cells incubated for 18 hrs by staining based flow cytometric analysis relative to control; assay type: functional
[34] = Toxicity in immunized BALB/c mouse assessed as vascular congestion in lungs measured on day 42 by H and E staining based analysis; details: in vivo, 1008 h, time 42 day
[35] = Toxicity in immunized BALB/c mouse assessed as vascular congestion in heart measured on day 42 by H and E staining based analysis; assay type: tissue-based; details: in vivo, 1008 h, time 42 day
[36] = Induction of mouse RAW264.7 cell maturation assessed as fold increase in CD80 and CD86 positive cells incubated for 18 hrs by staining based flow cytometric analysis relative to combination of RC529 and Muramyl dipeptide; assay type: functional
[37] = Induction of mouse BMDC cell maturation assessed as fold increase in CD86 positive cells incubated for 18 hrs by staining based flow cytometric analysis relative to combination of RC529 and Muramyl dipeptide; assay type: functional
[38] = Toxicity in immunized BALB/c mouse assessed as inflammatory cell infiltration in lungs measured on day 42 by H and E staining based analysis; details: 1008 h, time 42 day
[39] = Toxicity in immunized BALB/c mouse assessed as inflammatory cell infiltration in brain measured on day 42 by H and E staining based analysis; assay type: tissue-based; details: 1008 h, time 42 day
T-cell [40] = test: Immunostimulatory activity in mouse spleen T-lymphocytes assessed as fold increase in proportion of TNF-alpha and IFN-gamma double-positive secreting CD4+ cells and measured on day 42 by staining based flow cytometric analysis RC529; assay type: functional; details: time 42 day

With `CCCCCCCCCCCCCC(=O)O[C@H](CCCCCCCCCCC)CC(=O)NCCO[C@@H]1O[C@H](CNC(=O)CCc2cn(CCO[C@@H]3O[C@H](CO)[C@@H](O)[C@H](O[C@H](C)C(=O)N[C@H](C)C(=O)N[C@H](CCC(=O)O)C(N)=O)[C@H]3NC(C)=O)nn2)[C@@H](OP(=O)(O)O)[C@H](OC(=O)C[C@@H](CCCCCCCCCCC)OC(=O)CCCCCCCCCCCCC)[C@H]1NC(=O)C[C@@H](CCCCCCCCCCC)OC(=O)CCCCCCCCCCCCC` the Activity (Mus musculus [1]) was “Active”, the Activity [2] was “Non-toxic” and the Activity [3] was 22.4%. For the same compound, the “fold change (FC)” value [4] was 1.7, the Activity [5] was 58% and the “fold change (FC)” value [6] was 1.3. For the same compound, the Activity [7] was “Non-toxic”, the “fold change (FC)” value [8] was 1.4 and the Activity (Mus musculus [9]) was “Active”. For the same compound, the “fold change (FC)” value [10] was 2.2, the Activity [11] was 98% and the “fold change (FC)” value (Mus musculus [12]) was 6.8. The Activity (THP-1) was “Non-toxic”, the “fold change (FC)” value (T-cell [13]) was 1.5 and the “fold change (FC)” value [14] was 1.2. For the same compound, the Activity [15] was “Non-toxic”, the Activity [16] was “Non-toxic” and the Activity [17] was “Non-toxic”. For the same compound, the Activity [18] was “Non-toxic”, the “fold change (FC)” value (T-cell [19]) was 1.3 and the Activity (Mus musculus [20]) was “Active”. The “fold change (FC)” value (T-cell [21]) was 3.3, the “fold change (FC)” value (Mus musculus [22]) was 2 and the Activity [23] was “Non-toxic”. For the same compound, the Activity [24] was 40.4%, the Activity (Mus musculus [25]) was “Active” and the “fold change (FC)” value [26] was 2.7. For the same compound, the Activity [27] was 99%, the Activity [28] was “Non-toxic” and the Activity [29] was “Non-toxic”. For the same compound, the “fold change (FC)” value [30] was 1.3, the Activity [31] was “Non-toxic” and the Activity [32] was 31.5%. For the same compound, the Activity [33] was 29.9%, the Activity [34] was “Non-toxic” and the Activity [35] was “Non-toxic”. For the same compound, the “fold change (FC)” value [36] was 2.1, the “fold change (FC)” value [37] was 1.5 and the Activity [38] was “Non-toxic”. For the same compound, the Activity [39] was “Non-toxic” and the “fold change (FC)” value (T-cell [40]) was 1.6.
